The supplement of paper PMC10307832

compound: C[C@@H](Oc1cc(-c2cnn(C3CCNCC3)c2)cnc1N)c1c(Cl)ccc(F)c1Cl [Crizotinib] + COc1cc2c(Oc3ccc(NC(=O)C4(C(=O)Nc5ccc(F)cc5)CC4)cc3F)ccnc2cc1OCCCN1CCOCC1 [Foretinib] (partner 0.25 µM); assay: relative viability (nuclei count vs DMSO), 5 days (fraction); higher = more cells survive; settings: first compound 0.01 µM
How it was run: (§1)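 Lung cancer cell lines, seeded in 1536-well plates, were treated the following day by pin tool with a single drug or with five library-drug doses (not always all listed) in √10 steps on top of a fixed anchor-drug dose. Cells were fixed and nuclei stained in one step after 5 days, and nuclei were counted. Relative viability is the nuclei count for treated wells divided by that for vehicle wells, reported as medians of duplicate plates.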

Cell Line	relative viability
LC-2-ad	0.839
LCLC-97TM1	0.83
LK-2	1.19
LOU-NH91	0.917
LU99A	0.74
LXF-289	0.864
NCI-H23	0.998
NCI-H322M	0.852
NCI-H460	0.801
NCI-H596	0.854
NCI-H647	1.2
NCI-H838	0.961
NCI-H1355	0.935
NCI-H1395	0.827
NCI-H1437	1.14
NCI-H1651	0.615
NCI-H1666	0.921

Cell Line	relative viability
NCI-H1703	0.362
NCI-H1734	0.811
NCI-H1755	0.835
NCI-H1915	1
NCI-H1944	0.823
NCI-H1975	0.941
NCI-H1993	0.848
NCI-H2085	0.822
NCI-H2087	1.12
NCI-H2126	1.03
NCI-H2170	0.965
NCI-H2347	0.689
NCI-H2405	1.02
NCI-H3122	0.94
PC-3 [JPC-3]	0.969
PC-14	0.894
RERF-LC-KJ	0.824

same assay, conditions: first compound 0.03162 µM

Cell Line	relative viability
LC-2-ad	0.994
LK-2	1.42
LOU-NH91	0.949
LU99A	0.781
LXF-289	1
NCI-H23	0.905
NCI-H322M	1.04
NCI-H460	1.05
NCI-H596	0.898
NCI-H647	1.24
NCI-H727	1.24
NCI-H838	1.04
NCI-H1355	0.81
NCI-H1395	0.937
NCI-H1437	1.22
NCI-H1651	0.725
NCI-H1666	0.969

Cell Line	relative viability
NCI-H1703	0.295
NCI-H1734	0.847
NCI-H1755	0.923
NCI-H1915	1.1
NCI-H1944	0.877
NCI-H1975	1.03
NCI-H1993	0.9
NCI-H2085	0.809
NCI-H2087	1.12
NCI-H2126	1.18
NCI-H2170	0.991
NCI-H2347	0.918
NCI-H2405	1.06
NCI-H3122	0.925
PC-3 [JPC-3]	1.05
PC-14	1.01
RERF-LC-KJ	0.896

same assay, conditions: first compound 0.1 µM

Cell Line	relative viability
LK-2	1.2
LOU-NH91	0.995
LU99A	0.812
LXF-289	1.01
NCI-H23	1.01
NCI-H322M	0.947
NCI-H460	0.996
NCI-H596	0.85
NCI-H647	1.19
NCI-H727	0.957
NCI-H838	1.01
NCI-H1355	0.922
NCI-H1437	1.25
NCI-H1651	0.843
NCI-H1666	0.99
NCI-H1703	0.358

Cell Line	relative viability
NCI-H1734	0.753
NCI-H1755	0.887
NCI-H1915	1.07
NCI-H1944	0.847
NCI-H1975	0.902
NCI-H1993	0.741
NCI-H2085	0.906
NCI-H2087	1.03
NCI-H2126	1.12
NCI-H2170	0.999
NCI-H2347	1.03
NCI-H2405	1.05
NCI-H3122	0.978
PC-3 [JPC-3]	1.01
RERF-LC-KJ	1.33

same assay, conditions: first compound 0.3162 µM

Cell Line	relative viability
LC-2-ad	0.884
LCLC-97TM1	0.959
LOU-NH91	0.921
LU99A	0.788
LXF-289	0.914
NCI-H322M	1.09
NCI-H460	1.02
NCI-H596	1.11
NCI-H647	1.18
NCI-H838	0.994
NCI-H1355	0.916
NCI-H1395	0.941
NCI-H1437	1.27
NCI-H1651	0.864
NCI-H1666	0.964
NCI-H1703	0.398
NCI-H1755	0.877
NCI-H1944	0.884
NCI-H1975	0.962
NCI-H1993	0.827
NCI-H2126	1.1
NCI-H2170	1.02
NCI-H2347	0.656
NCI-H2405	1.09
NCI-H3122	0.873
PC-3 [JPC-3]	0.992
PC-14	0.926
RERF-LC-KJ	0.817

same assay, conditions: first compound 1 µM

Cell Line	relative viability
LC-2-ad	0.877
LCLC-97TM1	0.801
LK-2	1.27
LOU-NH91	0.98
LU99A	0.766
LXF-289	0.954
NCI-H23	0.936
NCI-H322M	0.889
NCI-H460	1.07
NCI-H596	0.835
NCI-H647	1.22
NCI-H727	1.22
NCI-H838	1.02
NCI-H1355	0.959
NCI-H1395	0.959
NCI-H1437	1.32
NCI-H1651	0.902
NCI-H1666	0.955

Cell Line	relative viability
NCI-H1703	0.331
NCI-H1734	0.805
NCI-H1755	0.891
NCI-H1915	1.08
NCI-H1944	0.862
NCI-H1975	0.975
NCI-H1993	0.82
NCI-H2085	0.987
NCI-H2087	1.24
NCI-H2126	1.18
NCI-H2170	1.01
NCI-H2347	1.06
NCI-H2405	1.06
NCI-H3122	0.924
PC-3 [JPC-3]	0.986
PC-14	0.999
RERF-LC-KJ	0.887

compound: C[C@@H](Oc1cc(-c2cnn(C3CCNCC3)c2)cnc1N)c1c(Cl)ccc(F)c1Cl [Crizotinib] + CS(=O)(=O)CCNCc1ccc(-c2ccc3ncnc(Nc4ccc(OCc5cccc(F)c5)c(Cl)c4)c3c2)o1 [Lapatinib] (partner 2 µM); assay: as above; settings: first compound 0.01 µM
How it was run: as §1

Cell Line	relative viability
LC-2-ad	0.866
LCLC-97TM1	1.08
LK-2	0.953
LOU-NH91	0.738
LU99A	0.824
LXF-289	0.902
NCI-H23	1.12
NCI-H322M	0.478
NCI-H460	0.977
NCI-H596	1.02
NCI-H727	0.837
NCI-H838	0.689
NCI-H1395	0.971
NCI-H1437	0.768
NCI-H1651	0.642
NCI-H1666	0.618
NCI-H1703	1.23

Cell Line	relative viability
NCI-H1734	1.03
NCI-H1755	1
NCI-H1915	0.902
NCI-H1944	0.751
NCI-H1975	0.719
NCI-H1993	0.687
NCI-H2085	0.724
NCI-H2087	0.936
NCI-H2126	0.701
NCI-H2170	0.274
NCI-H2347	0.982
NCI-H2405	1.05
NCI-H3122	0.985
PC-3 [JPC-3]	0.408
PC-14	0.297
RERF-LC-KJ	0.801

same assay, conditions: first compound 0.03162 µM

Cell Line	relative viability
LC-2-ad	0.981
LCLC-97TM1	0.927
LK-2	0.852
LOU-NH91	0.731
LU99A	1.02
LXF-289	0.886
NCI-H23	1.03
NCI-H322M	0.642
NCI-H460	1.24
NCI-H596	1.12
NCI-H647	1.1
NCI-H727	0.749
NCI-H838	1.22
NCI-H1355	1.04
NCI-H1395	1.14
NCI-H1437	0.839
NCI-H1651	0.782
NCI-H1666	0.678

Cell Line	relative viability
NCI-H1703	1.18
NCI-H1734	1.05
NCI-H1755	1.04
NCI-H1915	0.95
NCI-H1944	0.82
NCI-H1975	1.01
NCI-H1993	0.843
NCI-H2085	0.899
NCI-H2087	1.07
NCI-H2126	0.763
NCI-H2170	0.283
NCI-H2347	0.902
NCI-H2405	0.975
NCI-H3122	0.891
PC-3 [JPC-3]	0.448
PC-14	0.339
RERF-LC-KJ	0.881

same assay, conditions: first compound 0.1 µM

Cell Line	relative viability
LC-2-ad	1.03
LCLC-97TM1	1.04
LK-2	0.819
LOU-NH91	0.677
LU99A	0.976
LXF-289	0.925
NCI-H23	1.09
NCI-H322M	0.616
NCI-H460	0.983
NCI-H596	1.02
NCI-H647	1.23
NCI-H727	1.15
NCI-H1355	1.07
NCI-H1395	1
NCI-H1437	0.816
NCI-H1651	0.722
NCI-H1666	0.587

Cell Line	relative viability
NCI-H1703	1.07
NCI-H1734	1
NCI-H1755	1.07
NCI-H1915	1.01
NCI-H1944	0.767
NCI-H1975	0.971
NCI-H1993	0.781
NCI-H2085	0.785
NCI-H2087	0.915
NCI-H2126	0.765
NCI-H2170	0.261
NCI-H2347	0.906
NCI-H2405	0.999
NCI-H3122	0.951
PC-3 [JPC-3]	0.446
PC-14	0.312
RERF-LC-KJ	0.853

same assay, conditions: first compound 0.3162 µM

Cell Line	relative viability
LK-2	0.867
LOU-NH91	0.57
LU99A	1.03
LXF-289	0.779
NCI-H322M	0.584
NCI-H460	0.94
NCI-H596	1.02
NCI-H647	0.792
NCI-H727	0.729
NCI-H838	0.996
NCI-H1355	0.863
NCI-H1395	0.922
NCI-H1437	0.711
NCI-H1651	0.893
NCI-H1666	0.657
NCI-H1703	1.17
NCI-H1755	0.938
NCI-H1944	0.715
NCI-H1975	0.798
NCI-H1993	0.681
NCI-H2085	0.709
NCI-H2087	0.557
NCI-H2126	0.763
NCI-H2170	0.243
NCI-H2347	0.888
NCI-H2405	0.952
NCI-H3122	0.962
PC-3 [JPC-3]	0.422
PC-14	0.304

same assay, conditions: first compound 1 µM

Cell Line	relative viability
LC-2-ad	0.54
LCLC-97TM1	1.12
LOU-NH91	0.712
LU99A	0.928
LXF-289	0.872
NCI-H23	1.18
NCI-H322M	0.701
NCI-H460	0.982
NCI-H596	1.24
NCI-H647	1.07
NCI-H727	0.888
NCI-H838	0.987
NCI-H1355	0.986
NCI-H1395	0.956
NCI-H1437	0.928
NCI-H1651	0.892
NCI-H1666	0.682
NCI-H1703	1.02
NCI-H1734	1.04
NCI-H1755	1.03
NCI-H1915	0.969
NCI-H1944	0.863
